Assay results from patent EP1992637A1, “1-Aminocyclopentane-1,3,4- tricarboxylic acids derivatives” (priority 2007, dated 2008).

Tests used:
[1] = In vivo pharmacokinetic evaluation (ACPT-I in plasma, LC/MS/MS); conditions: rat, po, 30 mg/kg
[2] = tested on: haldol-induced catalepsy; assay: Haldol-induced catalepsy model of Parkinson's disease, bar test; type: in vivo; conditions: mice
Description: The compounds of the invention were evaluated in a model of Parkinson's disease, the haldol-induced catalepsy model in mice. Catalepsy was assessed using the bar test in mice submitted to acute administration of the dopamine D2 receptor antagonist haloperidol (1mg/kg, intraperitoneally or ip). Mice (male RjOrl: Swiss mice, weighing 30 - 35 g at the beginning of the experiment) placed in group of 5 in Plexiglas cages, were injected with haloperidol (1 mg/kg ip). […] The catalepsy response of one mouse was measured as the time the animal maintained an imposed posture with both forelimbs placed on a horizontal 0.9cm-diameter wire bar suspended 4cm above a platform. The end point of catalepsy was considered to occur when both forelimbs were removed from the bar, the mouse climbed onto the bar or if the animal moved its head in an exploratory manner. A cutoff time of 180 seconds was applied. The degree of catalepsy was scored 60 minutes after haloperidol administration and continued at 30 or 60 minutes intervals for a total of 240-300 minutes. Between measurements, the animals were returned to their home cages. This procedure was adapted from the literature: (e.g. Pires et al., Braz J Med and Biol Res 38, 1867-1872, 2005; Shiozaki et al., Psychopharmacology 147, 90-95, 1999). Parent compound and corresponding vehicle, given either intraperitoneally (ip) or orally (po), were administered 30 minutes after haldol administration. Prodrugs and corresponding vehicle were injected 4h before haldol administration. Prodrug dose is expressed in equivalent of parent compound.
Data analysis: the figures 2 and 3 show the mean time of latency spent on the bar for each group of animals. At each time-point, the anti-cataleptic effects of parent compound and prodrugs were compared to vehicle-treated groups using 1-factor ANOVA test followed by the Dunnett's test. Datapoints marked with "*" in figures 3 or 4 indicates p<0.05; "**" indicates p<0.01.

[3] = 100mg/kg orally (dose in equivalent of parent compound), given 4h before haldol (1 mg/kg ip)

SMILES | bioavailability [1] [%] | anticataleptic activity ([2]; 30mg/kg ip, given 30 minutes after haldol (1 mg/kg ip)) | anticataleptic activity ([2]; 100mg/kg oral administration, given 30 minutes after haldol (1 mg/kg ip)) | anticataleptic activity [2, 3]
N[C@@]1(C(=O)O)C[C@H](C(=O)O)[C@H](C(=O)O)C1 [ACPT-I, (1S, 3R, 4S) -1-aminocyclopentane-1,3,4-tricarboxylic acid] | 1.14 | significantly reduced catalepsy | no anticataleptic activity | –
C[C@H](N)C(=O)N[C@@]1(C(=O)O)C[C@H](C(=O)O)[C@H](C(=O)O)C1 [Example 3, (1S, 3R, 4S)-1-{[(2'S)-'2-aminopropanoyl]amino}cyclopentane-1,3,4-tricarboxylic acid] | – | – | – | significantly reduced the haldol-induced cataleptic response
CC(C)C[C@H](N)C(=O)N[C@@]1(C(=O)O)C[C@H](C(=O)O)[C@H](C(=O)O)C1 [Example 1, (1S, 3R, 4S)-1-{[(2'S)-2'-amino-4'-methylpentanoyl]amino}cyclopentane-1,3,4-tricarboxylic acid] | – | – | – | significantly reduced the haldol-induced cataleptic response
